Laboratory results published in patent publication US12285407B2, “Bis-indolylmethane derivatives and uses thereof” (The University of The West Indies, priority 2018, dated 2025).
Converted amounts (≈) assume the structure as drawn. Read-outs that look alike come from different tables or passages of the source.

How the values were obtained:
Escherichia coli O157:H7 [1] = test: Rescue concentrations of SP-BIM that reactivate antibiotic; format: cell-based; settings: for MIC: Escherichia coli
Bacillus cereus = test: Adjuvant broth microdilution (antibiotic MIC with SP-BIM at 50 μg/mL); format: cell-based; settings: antibiotic alone, Table 9
Klebsiella pneumoniae = test: as above; format: cell-based; settings: for MIC of antibiotic, No Compound: Klebsiella pneumonia, no SP-BIM; for MIC: Klebsiella pneumoniae, read-out: MIC of antibiotic, No compound
[2] = test system: clinical antibiotic resistant isolates of MRSA; test: Checkerboard resistance breaking by SP-BIM 13; format: cell-based, Staphylococcus aureus; settings: for FIC compound: SP-BIM 13 with the labelled antibiotic; for Interpretation / Σ FIC: antibiotic + SP-BIM 13; for MIC of antibiotic only: antibiotic alone; for FIC antibiotic: combination with SP-BIM 13; for MIC of antibiotic in combination: with SP-BIM 13 at rescue concentration
Enterococcus faecium = test: Checkerboard synergy (FICI) of antibiotics with SP-BIM; format: cell-based; settings: Enterococcus faecium, Enterococcus faecium; for MIC: 24 h, read-out: MIC antibiotic only; for MIC in combination, SP-BIM 9: SP-BIM 9 concentration in combination with the labelled antibiotic; for FIC of SP-BIM 9: SP-BIM 9 in combination with the labelled antibiotic; for FIC of SP-BIM 13: SP-BIM 13 in combination with the labelled antibiotic
Escherichia coli O157:H7 [3] = format: cell-based; settings: antibiotic alone, no SP-BIM
Enterobacter cloacae = test: Adjuvant broth microdilution (antibiotic MIC with SP-BIM at 50 μg/mL); format: cell-based; settings: antibiotic alone
Enterococcus faecalis = test: as above; format: cell-based; settings: antibiotic alone
MRSA HS 10132 [4] = test: Systemic non-lethal MRSA infection in mice (organ MRSA load); format: in vivo
Pseudomonas aeruginosa = test: Adjuvant broth microdilution (antibiotic MIC with SP-BIM at 50 μg/mL); format: cell-based; settings: antibiotic alone
MRSA HS 10132 [5] = test: Systemic lethal MRSA infection in mice (survival); format: in vivo
MRSA = test: Adjuvant broth microdilution (antibiotic MIC with SP-BIM at 50 μg/mL); format: cell-based, Staphylococcus aureus
[6] = antibiotic alone, SP-BIM 13 checkerboard
[7] = antibiotic in combination with SP-BIM 9
[8] = antibiotic in combination with SP-BIM 13

In the case of `CC1(C)S[C@@H]2[C@H](NC(=O)[C@H](N)c3ccccc3)C(=O)N2[C@H]1C(=O)O` [Ampicillin, ampicillin], the “MIC of Ampicillin in combination with […] SP-BIM 27” value (Escherichia coli O157:H7 [1]; E. coli O157:H7, with […] SP-BIM 27) was 2 µg/mL, the MIC (Escherichia coli O157:H7 [1]; read-out: MIC of Ampicillin) was 16 µg/mL and the “MIC of antibiotic, No Compound” value (Bacillus cereus) was over 250 µg/mL. The “MIC of antibiotic, No Compound” value (Klebsiella pneumoniae; antibiotic alone) was over 250 µg/mL, the MIC (Klebsiella pneumoniae; antibiotic alone, Table 7) was over 250 µg/mL and the FIC compound ([2]; MRSA strain 1594) was 0.128. For the same compound, the Interpretation ([2]; MRSA strain 1594) was “Synergy (Synergy: FICI≤0.5)”, the Σ FIC ([2]; MRSA strain 1594) was under 0.14 and the “MIC of antibiotic only” value ([2]; MRSA strain 1594) was 250 µg/mL. For the same compound, the FIC antibiotic ([2]; MRSA strain 1594) was 0.016, the “MIC of antibiotic in combination” value ([2]; MRSA strain 1594) was 4 µg/mL and the FIC compound ([2]; MRSA strain 1621) was 0.128. The Interpretation ([2]; MRSA strain 1621) was “Synergy (Synergy: FICI≤0.5)”, the Σ FIC ([2]; MRSA strain 1621) was under 0.13 and the “MIC of antibiotic only” value ([2]; MRSA strain 1621) was 250 µg/mL. The FIC antibiotic ([2]; MRSA strain 1621) was 0.002, the “MIC of antibiotic in combination” value ([2]; MRSA strain 1621) was 0.5 µg/mL and the FIC compound ([2]; MRSA strain 5455) was 0.252. The Interpretation ([2]; MRSA strain 5455) was “Synergy (Synergy: FICI≤0.5)”, the Σ FIC ([2]; MRSA strain 5455) was under 0.26 and the “MIC of antibiotic only” value ([2]; MRSA strain 5455) was 250 µg/mL. For the same compound, the FIC antibiotic ([2]; MRSA strain 5455) was 0.004, the “MIC of antibiotic in combination” value ([2]; MRSA strain 5455) was 1 µg/mL and the FIC compound ([2]; MRSA strain 5872) was 0.128. For the same compound, the Interpretation ([2]; MRSA strain 5872) was “Synergy (Synergy: FICI≤0.5)”, the Σ FIC ([2]; MRSA strain 5872) was under 0.13 and the “MIC of antibiotic only” value ([2]; MRSA strain 5872) was 250 µg/mL. The FIC antibiotic ([2]; MRSA strain 5872) was 0.002, the “MIC of antibiotic in combination” value ([2]; MRSA strain 5872) was 0.5 µg/mL and the FIC compound ([2]; MRSA strain 7153) was 0.252. The Interpretation ([2]; MRSA strain 7153) was “Synergy (Synergy: FICI≤0.5)”, the Σ FIC ([2]; MRSA strain 7153) was under 0.25 and the “MIC of antibiotic only” value ([2]; MRSA strain 7153) was 250 µg/mL. The FIC antibiotic ([2]; MRSA strain 7153) was 0.002, the “MIC of antibiotic in combination” value ([2]; MRSA strain 7153) was 0.5 µg/mL and the FIC compound ([2]; MRSA strain 7172) was 0.128. For the same compound, the Interpretation ([2]; MRSA strain 7172) was “Synergy (Synergy: FICI≤0.5)”, the Σ FIC ([2]; MRSA strain 7172) was under 0.14 and the “MIC of antibiotic only” value ([2]; MRSA strain 7172) was 250 µg/mL. For the same compound, the FIC antibiotic ([2]; MRSA strain 7172) was 0.008, the “MIC of antibiotic in combination” value ([2]; MRSA strain 7172) was 2 µg/mL and the FIC compound ([2]; MRSA strain 7698) was 0.128. For the same compound, the Interpretation ([2]; MRSA strain 7698) was “Synergy (Synergy: FICI≤0.5)”, the Σ FIC ([2]; MRSA strain 7698) was under 0.14 and the “MIC of antibiotic only” value ([2]; MRSA strain 7698) was 250 µg/mL. For the same compound, the FIC antibiotic ([2]; MRSA strain 7698) was 0.008, the “MIC of antibiotic in combination” value ([2]; MRSA strain 7698) was 2 µg/mL and the FIC compound ([2]; MRSA strain 10132) was 0.064. The Interpretation ([2]; MRSA strain 10132) was “Synergy (Synergy: FICI≤0.5)”, the Σ FIC ([2]; MRSA strain 10132) was under 0.07 and the “MIC of antibiotic only” value ([2]; MRSA strain 10132) was 250 µg/mL. For the same compound, the FIC antibiotic ([2]; MRSA strain 10132) was 0.002, the “MIC of antibiotic in combination” value ([2]; MRSA strain 10132) was 0.5 µg/mL and the “MIC of antibiotic without SP-BIM 13” value ([2]; clinical MRSA strains) was at least 250 µg/mL. The MIC (Enterococcus faecium; antibiotic alone, SP-BIM 9 checkerboard) was 250 µg/mL, the MIC (Enterococcus faecium; [6]) was 250 µg/mL and the “MIC in combination, SP-BIM 9” value (Enterococcus faecium) was 64 µg/mL. The “FIC of SP-BIM 9” value (Enterococcus faecium) was 0.3, the “FIC of SP-BIM 13” value (Enterococcus faecium) was 0.5 and the Interpretation (Enterococcus faecium; antibiotic + SP-BIM 9) was “Synergy (Synergy: FICI≤0.5)”. For the same compound, the “Σ FIC” value (Enterococcus faecium; antibiotic + SP-BIM 9) was at most 0.3, the Interpretation (Enterococcus faecium; antibiotic + SP-BIM 13) was “Additive (Additive: FICI>0.5-1.0)” and the “Σ FIC” value (Enterococcus faecium; antibiotic + SP-BIM 13) was under 0.6. The “MIC in combination, Antibiotic” value (Enterococcus faecium; [7]) was 0.1 µg/mL, the “MIC in combination, Antibiotic” value (Enterococcus faecium; [8]) was 16 µg/mL and the FIC of antibiotic (Enterococcus faecium; in combination with SP-BIM 9) was 0.0. The FIC of antibiotic (Enterococcus faecium; in combination with SP-BIM 13) was 0.1, the “MIC of antibiotic, No Compound” value (Escherichia coli O157:H7 [3]) was 8 µg/mL and the “MIC of antibiotic, No Compound” value (Enterobacter cloacae) was over 250 µg/mL. The “MIC of antibiotic, No Compound” value (Enterococcus faecalis) was 2 µg/mL, the “MRSA load in the spleen” value (MRSA HS 10132 [4]; ampicillin only ([…] mg kg^−1), SP-BIM 9 study) was 14,622 CFU g^−1 and the “MRSA counts in liver” value (MRSA HS 10132 [4]; ampicillin only ([…] mg kg^−1), subcutaneous) was 3500 CFU mL^−1. The “MRSA counts in the liver” value (MRSA HS 10132 [4]; ampicillin only, SP-BIM 9 study) was 7605 CFU g^−1, the “MIC of antibiotic, No Compound” value (Pseudomonas aeruginosa) was over 250 µg/mL and the mortality (MRSA HS 10132 [5]; ampicillin only, 5 days) was 100%.
In the case of `CN[C@H](CC(C)C)C(=O)N[C@H]1C(=O)N[C@@H](CC(N)=O)C(=O)N[C@H]2C(=O)N[C@H]3C(=O)N[C@H](C(=O)N[C@H](C(=O)O)c4cc(O)cc(O)c4-c4cc3ccc4O)[C@H](O)c3ccc(c(Cl)c3)Oc3cc2cc(c3O[C@@H]2O[C@H](CO)[C@@H](O)[C@H](O)[C@H]2O[C@H]2C[C@](C)(N)[C@H](O)[C@H](C)O2)Oc2ccc(cc2Cl)[C@H]1O` [Vancomycin, vancomycin], the MIC (Escherichia coli O157:H7 [1]; read-out: MIC (single agent)) was 250 µg/mL (≈ 173 µM), the “MIC of antibiotic, No Compound” value (Bacillus cereus) was 4 µg/mL and the “MIC of antibiotic, No Compound” value (Klebsiella pneumoniae; antibiotic alone) was over 250 µg/mL. The MIC (Klebsiella pneumoniae) was over 250 µg/mL, the MIC (MRSA; Staphylococcus aureus, read-out: MIC of antibiotic, No compound) was 4 µg/mL and the “MIC of antibiotic, No Compound” value (MRSA; antibiotic alone, Table 8 (series SP-BIMs 21-29)) was 2 µg/mL. The MIC (Enterococcus faecium) was 16 µg/mL, the “MIC in combination, SP-BIM 9” value (Enterococcus faecium) was 64 µg/mL and the “FIC of SP-BIM 9” value (Enterococcus faecium) was 0.3. The “FIC of SP-BIM 13” value (Enterococcus faecium) was 0.5, the Interpretation (Enterococcus faecium; antibiotic + SP-BIM 9) was “Synergy (Synergy: FICI≤0.5)” and the “Σ FIC” value (Enterococcus faecium; antibiotic + SP-BIM 9) was at most 0.31. The Interpretation (Enterococcus faecium; antibiotic + SP-BIM 13) was “Additive (Additive: FICI>0.5-1.0)”, the “Σ FIC” value (Enterococcus faecium; antibiotic + SP-BIM 13) was under 1.0 and the MIC antibiotic only (Enterococcus faecium; [6]) was 16 µg/mL. The “MIC in combination, Antibiotic” value (Enterococcus faecium; [7]) was 0.2 µg/mL, the “MIC in combination, Antibiotic” value (Enterococcus faecium; [8]) was 8 µg/mL and the FIC of antibiotic (Enterococcus faecium; in combination with SP-BIM 9) was 0.013. The FIC of antibiotic (Enterococcus faecium; in combination with SP-BIM 13) was 0.5, the “MIC of antibiotic, No Compound” value (Escherichia coli O157:H7 [3]) was 250 µg/mL and the “MIC of antibiotic, No Compound” value (Enterobacter cloacae) was over 250 µg/mL. For the same compound, the “MIC of antibiotic, No Compound” value (Enterococcus faecalis) was 250 µg/mL, the “MIC of antibiotic, No Compound” value (Pseudomonas aeruginosa) was over 250 µg/mL and the survival rate (MRSA HS 10132 [5]; vancomycin only) was “similarly high survival rate”.
